Earlier results in paper PMC4365270 (Cancer Chemotherapy and Pharmacology, 2015).

Parameters: method as in earlier work
Settings: higher doses; cited from earlier work

CC[C@H](NC(=O)[C@H](C)NC)C(=O)N1C[C@@H](O)C[C@H]1Cc1c(-c2[nH]c3cc(F)ccc3c2C[C@@H]2C[C@H](O)CN2C(=O)[C@H](CC)NC(=O)[C@H](C)NC)[nH]c2cc(F)ccc12 [birinapant]
Bell’s Palsy syndrome: increased incidence
